Test results: EP4389751A1, “HETEROCYCLIC COMPOUNDS AND USES THEREOF” (Kumquat Biosciences Inc., priority 2021, dated 2024)

What was measured:
K-Ras G12S = target: T1, K-Ras G12S (Homo sapiens, UniProt P01116, G12S); assay: HTRF assay of the K-Ras / SOS1 interaction; format: biochemical; conditions: IC50 (against K-Ras G12D) to IC50 (against K-Ras G12S)
T1 construct: made in house; host or cells: E. coli (e.g., BL21 (DE3))
In short: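 Compounds (duplicates, 10 µM to 0.01 µM) were incubated ≥~10 min with Eu-labelled GST-K-Ras G12S and XL665-labelled His-hSOS1 in HEPES pH 7.4 buffer containing NaCl, DTT, BSA and Igepal. Disruption measured as HTRF emission ratio 665/620 nm, fitted to IC50.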

[1] = target: T2, KRAS protein (His-tagged GDP-loaded G12S 1-169) (Homo sapiens, UniProt P01116, G12S); assay: Covalent modification of KRAS protein, intact-protein LC-MS; format: binding; conditions: 24hrs at room temperature, KRAS protein ~2 µM
T2 construct: His-tagged GDP-loaded G12S 1-169
In short: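 Percent covalent modification derives from deconvoluted intact-mass intensities of compound-adducted versus unmodified KRAS, measured by LC-ESI-MS. Before analysis, ~2 µM GDP-loaded His-KRAS 1-169 was exposed to compound for 24 h at room temperature and acidified with formic acid.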

GP2D cells = assay: Cell proliferation assay (CellTiter-Glo), K-Ras G12D cells; format: cell-based; conditions: GP2D cells (K-Ras G12D); read-out: Inhibition of GP2D Cells (IC50)
In short: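 CellTiter-Glo luminescence, taken roughly 5 days after dosing, measured growth of G12D-mutant GP2D cells in DMEM/2 mM glutamine/10% FBS. Compound dilution series (e.g., 9 points, 3-fold) added the day after plating. Four-parameter fitting gave IC50.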

[2] = Metabolic (microsomal) stability assay; format: in vitro ADME; conditions: mouse and/or human liver microsomal metabolism assays, greater than 10, 20, 30, 40, 50, 60 mins or longer
Experimental: All incubations are conducted in duplicate. […] Supernatants (40 µL) are transferred into clean 96-deep well plates.
The column temperature is maintained at 40 °C.
(Ct)/(C0) = e^−kt [formula]

A549 cells = assay: Cell proliferation assay (CellTiter-Glo), K-Ras G12S cells; format: cell-based; conditions: for IC50: Homo sapiens, A549, A549 cells (K-Ras G12S), bin ≤ 500 nM, read-out: Inhibition of A549 Cells (IC50); for ratio of IC50 against a G12D cell line to IC50 against a G12S cell line: K-Ras G12D cell line such as GP2D relative to K-Ras G12S cell line such as A549, greater than 1, 2, 3, 4, 5, 10, 15 or even greater, 8640 min
In short: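 A549 cells (K-Ras G12S) in RPMI-1640 with 10% FBS, seeded in standard or ultra-low-attachment plates and dosed next day with a 10-point 3-fold series. Viability read about 6 days later by CellTiter-Glo luminescence. IC50 from four-parameter fit.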

SMILES | Ratio of IC50 KRAS G12D vs. IC50 KRAS G12S (K-Ras G12S) | % G12S Modification at 24 hr. [1] | IC50 (GP2D cells) [nM] | T1/2 ([2]; 0.5 µM) | half-life at 0.5 µM ([2]; liver microsomes, pH 7.4) [min] | IC50 (A549 cells) [nM] | ratio of IC50 against a G12D cell line to IC50 against a G12S cell line (A549 cells)
N#Cc1c(N)sc2c(F)ccc(-c3c(Cl)cc4c(N5CC6CCC(C5)N6C(=O)n5ncnc5Cl)nc(OC[C@@]56CCCN5C[C@H](F)C6)nc4c3F)c12 [Compound A194] | A (A: indicates that the ratio of IC50 against KrasG12D vs. IC50 against KrasG12S is 1-fold or greater) | ++ (++ indicates between about 1%- 20% labelling) | ≤ 1000 | greater than 10 mins | – | – | –
N#Cc1cnn(C(=O)N2C3CCC2CN(c2nc(OC[C@@]45CCCN4C[C@H](F)C5)nc4c(F)c(-c5ccc(F)c6sc(N)c(C#N)c56)c(Cl)cc24)C3)c1 [Compound A278, 1-(3-(7-(2-amino-3-cyano-7-fluorobenzo[b]thiophen-4-yl)-6-chloro-8-fluoro-2-(((2R,7aS)-2-fluorotetrahydro-1H-pyrrolizin-7a(5H)-yl)methoxy)quinazolin-4-yl)-3,8-diazabicyclo[3.2.1]octane-8-carbonyl)-1H-pyrazole-4-carbonitrile] | A (A: indicates that the ratio of IC50 against KrasG12D vs. IC50 against KrasG12S is 1-fold or greater) | – | ≤ 1000 | – | > 10 | – | –
N#Cc1c(N)sc2c(F)ccc(-c3c(Cl)cc4c(N5CCC6CN(C(=O)n7cncn7)CC65)nc(OC[C@@]56CCCN5C[C@H](F)C6)nc4c3F)c12 (stereo partly drawn) [Compound A178, 4-(4-(5-(1H-1,2,4-triazole-1-carbonyl)hexahydropyrrolo[3,4-b]pyrrol-1(2H)-yl)-6-chloro-8-fluoro-2-(((2R,7aS)-2-fluorotetrahydro-1H-pyrrolizin-7a(5H)-yl)methoxy)quinazolm-7-yl)-2-amino-7-fluorobenzo[b]thiophene-3-carbonitrile] | – | +++ (+++ indicates greater than 20% labelling) | ≤ 1000 | – | – | ≤ 500 | –
C[C@H](Oc1nc(N2CCOC3(CN(C(=O)n4cncn4)C3)C2)c2cc(Cl)c(-c3ccc(F)c4sc(N)c(C#N)c34)c(F)c2n1)[C@@H]1CCCN1C [Compound A275, 4-(4-(2-(1H-1,2,4-triazole-1-carbonyl)-5-oxa-2,8-diazaspiro[3.5]nonan-8-yl)-6-chloro-8-fluoro-2-((S)-1-((S)-1-methylpyrrolidin-2-yl)ethoxy)quinazolin-7-yl)-2-amino-7-fluorobenzo[b]thiophene-3-carbonitrile] | – | +++ (+++ indicates greater than 20% labelling) | 1000 to 10000 | – | – | ≤ 500 | –
C#Cc1c(F)ccc2cc(O)cc(-c3ncc4c(N5CCOC6(CN(C(=O)n7cncn7)C6)C5)nc(OC[C@@]56CCCN5C[C@H](F)C6)nc4c3F)c12 [Compound A106, (8-(7-(8-ethynyl-7-fluoro-3-hydroxynaphthalen-1-yl)-8-fluoro-2-(((2R,7aS)-2-fluorotetrahydro-1H-pyrrolizin-7a(5H)-yl)methoxy)pyrido[4,3-d]pyrimidin-4-yl)-5-oxa-2,8-diazaspiro[3.5]nonan-2-yl)(1H-1,2,4-triazol-1-yl)methanone] | – | +++ (+++ indicates greater than 20% labelling) | 1000 to 10000 | – | – | ≤ 500 | –
C[C@H](Oc1nc(N2CCCCC3(CN(C(=O)n4cncn4)C3)C2)c2cc(Cl)c(-c3ccc(F)c4sc(N)c(C#N)c34)c(F)c2n1)[C@@H]1CCCN1C [Compound A219, 4-(4-(2-(1H-1,2,4-triazole-1-carbonyl)-2,6-diazaspiro[3.6]decan-6-yl)-6-chloro-8-fluoro-2-((S)-1-((S)-1-methylpyrrolidin-2-yl)ethoxy)quinazolin-7-yl)-2-amino-7-fluorobenzo[b]thiophene-3-carbonitrile] | – | +++ (+++ indicates greater than 20% labelling) | ≤ 1000 | – | – | ≤ 500 | greater than 1
C#Cc1c(F)ccc2cc(O)cc(-c3ccc4c(N5CCCC6(CN(C(=O)n7cncn7)C6)C5)nc(OC[C@@]56CCCN5C[C@H](F)C6)nc4c3F)c12 [Compound A210, (6-(7-(8-ethynyl-7-fluoro-3-hydroxynaphthalen-1-yl)-8-fluoro-2-(((2R,7aS)-2-fluorotetrahydro-1H-pyrrolizin-7a(5H)-yl)methoxy)quinazolin-4-yl)-2,6-diazaspiro[3.5]nonan-2-yl)(1H-1,2,4-triazol-1-yl)methanone] | – | +++ (+++ indicates greater than 20% labelling) | 1000 to 10000 | – | – | ≤ 500 | greater than 1
N#Cc1c(N)sc2c(F)ccc(-c3c(Cl)cc4c(N5CCCCC6(CN(C(=O)n7cncn7)C6)C5)nc(OC[C@@]56CCCN5C[C@H](F)C6)nc4c3F)c12 [Compound A295, 4-(4-(2-(1H-1,2,4-triazole-1-carbonyl)-2,6-diazaspiro[3.6]decan-6-yl)-6-chloro-8-fluoro-2-(((2R,7aS)-2-fluorotetrahydro-1H-pyrrolizin-7a(5H)-yl)methoxy)quinazolin-7-yl)-2-amino-7-fluorobenzo[b]thiophene-3-carbonitrile] | – | +++ (+++ indicates greater than 20% labelling) | ≤ 1000 | – | – | ≤ 500 | –
